# Source: patent publication US10815230B2, “Casein kinase 1 delta inhibitor” (ELECTROPHORETICS LIMITED, priority 2015, dated 2020)
# Marks after values point to notes of the source that are not given here.
# Experiments:
# RIPK2 = RIPK2 (Homo sapiens, UniProt O43353); assay: Kinase selectivity, % remaining activity; assay type: biochemical; settings: 10 μM compound, 10 μM ATP, duplicate
# Protocol: (§1) A two-tier strategy to determine the selectivity of compound A was applied: first, the compound was tested at a single concentration (in duplicate) to determine the %-remaining activity of the target kinase. Subsequently, the IC50 of compound A and comparative compounds for casein kinase 1 delta were determined.
# (§2) Compounds were tested in single dose duplicate mode at a concentration of 10 μM (in DMSO) and reactions were carried out at 10 μM ATP, Table 3 reports the % of remaining activity (relative to DMSO).
# PDK1/PDPK1 = target: T1, PDK1/PDPK1 (Homo sapiens, UniProt O15530); assay: Kinase selectivity, % remaining activity; assay type: biochemical; settings: 10 μM compound, 10 μM ATP, duplicate
# T1 sequence (O15530 1-556): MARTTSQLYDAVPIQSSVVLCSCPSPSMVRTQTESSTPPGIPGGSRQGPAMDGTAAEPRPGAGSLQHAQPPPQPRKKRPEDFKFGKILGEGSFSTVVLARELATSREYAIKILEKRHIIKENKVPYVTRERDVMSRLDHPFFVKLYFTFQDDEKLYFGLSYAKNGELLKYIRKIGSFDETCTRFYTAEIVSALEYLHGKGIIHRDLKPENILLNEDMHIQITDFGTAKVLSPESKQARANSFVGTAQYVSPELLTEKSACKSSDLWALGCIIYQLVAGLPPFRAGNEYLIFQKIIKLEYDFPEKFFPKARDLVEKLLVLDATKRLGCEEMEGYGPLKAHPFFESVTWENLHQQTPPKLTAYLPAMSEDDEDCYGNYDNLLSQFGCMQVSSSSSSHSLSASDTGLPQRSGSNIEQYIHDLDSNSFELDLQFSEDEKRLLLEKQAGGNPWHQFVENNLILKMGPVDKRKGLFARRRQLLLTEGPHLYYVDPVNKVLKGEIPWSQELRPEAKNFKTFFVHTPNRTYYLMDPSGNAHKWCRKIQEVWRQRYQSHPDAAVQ
# Protocol: as §1, §2
# c-Src = c-Src (Homo sapiens, UniProt P12931); assay: Kinase selectivity, % remaining activity; assay type: biochemical; settings: 10 μM compound, 10 μM ATP, duplicate
# Protocol: as §1, §2
# JNK2 = JNK2 (Homo sapiens, UniProt P45984); assay: Kinase selectivity, % remaining activity; assay type: biochemical; settings: 10 μM compound, 10 μM ATP, duplicate
# Protocol: as §1, §2
# CK1e = CK1e (Homo sapiens, UniProt P49674); assay: Kinase selectivity, % remaining activity; assay type: biochemical; settings: 10 μM compound, 10 μM ATP, duplicate
# Protocol: as §1, §2
# LCK = LCK (Homo sapiens, UniProt P06239); assay: Kinase selectivity, % remaining activity; assay type: biochemical; settings: 10 μM compound, 10 μM ATP, duplicate
# Protocol: as §1, §2
# P38a/MAPK14 = P38a/MAPK14 (Homo sapiens, UniProt Q16539); assay: Kinase selectivity, % remaining activity; assay type: biochemical; settings: 10 μM compound, 10 μM ATP, duplicate
# Protocol: as §1, §2
# FGFR1 = FGFR1 (Homo sapiens, UniProt P11362); assay: Kinase selectivity, % remaining activity; assay type: biochemical; settings: 10 μM compound, 10 μM ATP, duplicate
# Protocol: as §1, §2
# GSK3B = GSK3B (Homo sapiens, UniProt P49841); assay: Kinase selectivity, % remaining activity; assay type: biochemical; settings: 10 μM compound, 10 μM ATP, duplicate
# Protocol: as §1, §2
# EPHA2 = EPHA2 (Homo sapiens, UniProt P29317); assay: Kinase selectivity, % remaining activity; assay type: biochemical; settings: 10 μM compound, 10 μM ATP, duplicate
# Protocol: as §1, §2
# PKCb2 = PKCb2 (Homo sapiens, UniProt P05771); assay: Kinase selectivity, % remaining activity; assay type: biochemical; settings: 10 μM compound, 10 μM ATP, duplicate
# Protocol: as §1, §2
# CK1g3 = CK1g3 (Homo sapiens, UniProt Q9Y6M4); assay: Kinase selectivity, % remaining activity; assay type: biochemical; settings: 10 μM compound, 10 μM ATP, duplicate
# Protocol: as §1, §2
# CK1g1 = CK1g1 (Homo sapiens, UniProt Q9HCP0); assay: Kinase selectivity, % remaining activity; assay type: biochemical; settings: 10 μM compound, 10 μM ATP, duplicate
# Protocol: as §1, §2
# PKA = PKA (Homo sapiens, UniProt P17612); assay: Kinase selectivity, % remaining activity; assay type: biochemical; settings: 10 μM compound, 10 μM ATP, duplicate
# Protocol: as §1, §2
# YES/YES1 = YES/YES1 (Homo sapiens, UniProt P07947); assay: Kinase selectivity, % remaining activity; assay type: biochemical; settings: 10 μM compound, 10 μM ATP, duplicate
# Protocol: as §1, §2
# MSK1/RPS6KA5 = MSK1/RPS6KA5 (Homo sapiens, UniProt O75582); assay: Kinase selectivity, % remaining activity; assay type: biochemical; settings: 10 μM compound, 10 μM ATP, duplicate
# Protocol: as §1, §2
# CK1a1 = CK1a1 (Homo sapiens, UniProt P48729); assay: Kinase selectivity, % remaining activity; assay type: biochemical; settings: CK1a1, 10 μM compound, 10 μM ATP, duplicate
# Protocol: as §2
# [1] = test system: TMHT (Thy-1 Mutated Human Tau) mouse; assay: In-vivo efficacy, Morris Water Maze in tau transgenic mice; settings: 30 mg/kg orally for 8 weeks
# From the text: Various compounds of different classes (among them also antibody treatments) were positively tested for their efficacy in the TMHT model. Published examples are the γ-secretase modulator CHF5074 (Lanzilotta A, et al. The γ-secretase modulator CHF5074 reduces the accumulation of native hyperphosphoxylated tau in a transgenic mouse model of Alzheimer's disease. J Mol Neurosci. 45(1):22--33 (2010)), sodium selenate (Corcoran N M et al. Sodium selenate specifically activates PP2A phosphatase, dephosphorylates tau and reverses memory deficits in an Alzheimer's disease model. J Clin Neurosci. 17(8):1025-33 (2010)) and grape-seed polyphenol extract (Wang J et al. Grape derived polyphenols attenuate tau neuropathology in a mouse model of Alzheimer's disease. […] The effects of the compounds on learning in the Morris Mater Maze (MWM) were evaluated. Blood (plasma) and brain samples were collected after sacrification. Samples collected at sacrifice were plasma, left cortex, left hippocampus, right cortex, right hippocampus, remainder of left brain hemisphere, remainder of right brain hemisphere. In total 48 animals were used and allocated to 4 treatment groups. The start position of the mouse and the position of the platform (FIG. 1) in the different trials of the MWM were as indicated in Table 9: […] A descriptive statistical analysis was performed on all evaluated parameters. All data were represented as mean ±standard error of mean (SEM). MWM learning curve data of three trials per day were averaged. Over a period of 4 days, the ability to find a hidden platform using visual cues was measured performing 3 trials a day. By comparison of the learning curves, the cognitive abilities of the different treatment groups and possible drug effects were evaluated.
# [2] = read-out: % of remaining activity (relative to DMSO)
# Sequence of LCK (P06239 whole entry): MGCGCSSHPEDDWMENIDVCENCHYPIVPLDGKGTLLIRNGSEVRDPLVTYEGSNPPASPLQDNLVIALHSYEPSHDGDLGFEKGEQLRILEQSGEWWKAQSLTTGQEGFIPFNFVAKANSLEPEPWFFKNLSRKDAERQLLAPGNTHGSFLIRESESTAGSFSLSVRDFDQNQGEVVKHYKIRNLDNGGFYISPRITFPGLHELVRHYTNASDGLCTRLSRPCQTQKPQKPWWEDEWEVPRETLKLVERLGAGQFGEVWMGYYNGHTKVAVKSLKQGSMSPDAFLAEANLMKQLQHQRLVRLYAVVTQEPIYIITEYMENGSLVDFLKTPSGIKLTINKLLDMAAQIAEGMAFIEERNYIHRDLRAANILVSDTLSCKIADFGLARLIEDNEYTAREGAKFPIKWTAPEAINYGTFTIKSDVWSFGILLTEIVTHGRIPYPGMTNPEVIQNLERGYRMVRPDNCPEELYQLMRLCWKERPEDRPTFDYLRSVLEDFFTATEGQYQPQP
# Sequence of GSK3B (P49841 whole entry): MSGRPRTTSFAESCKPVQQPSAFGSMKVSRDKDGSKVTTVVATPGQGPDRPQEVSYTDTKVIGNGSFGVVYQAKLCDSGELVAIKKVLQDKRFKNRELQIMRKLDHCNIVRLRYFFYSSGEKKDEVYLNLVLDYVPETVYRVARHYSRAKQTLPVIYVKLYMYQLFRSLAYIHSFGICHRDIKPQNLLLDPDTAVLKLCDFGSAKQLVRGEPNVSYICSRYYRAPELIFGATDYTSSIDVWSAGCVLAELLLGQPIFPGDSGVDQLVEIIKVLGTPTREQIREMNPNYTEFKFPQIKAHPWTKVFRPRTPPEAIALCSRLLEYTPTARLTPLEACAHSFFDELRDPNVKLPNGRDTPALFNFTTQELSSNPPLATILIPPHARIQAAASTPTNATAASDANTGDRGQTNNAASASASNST
# Sequence of YES/YES1 (P07947 whole entry): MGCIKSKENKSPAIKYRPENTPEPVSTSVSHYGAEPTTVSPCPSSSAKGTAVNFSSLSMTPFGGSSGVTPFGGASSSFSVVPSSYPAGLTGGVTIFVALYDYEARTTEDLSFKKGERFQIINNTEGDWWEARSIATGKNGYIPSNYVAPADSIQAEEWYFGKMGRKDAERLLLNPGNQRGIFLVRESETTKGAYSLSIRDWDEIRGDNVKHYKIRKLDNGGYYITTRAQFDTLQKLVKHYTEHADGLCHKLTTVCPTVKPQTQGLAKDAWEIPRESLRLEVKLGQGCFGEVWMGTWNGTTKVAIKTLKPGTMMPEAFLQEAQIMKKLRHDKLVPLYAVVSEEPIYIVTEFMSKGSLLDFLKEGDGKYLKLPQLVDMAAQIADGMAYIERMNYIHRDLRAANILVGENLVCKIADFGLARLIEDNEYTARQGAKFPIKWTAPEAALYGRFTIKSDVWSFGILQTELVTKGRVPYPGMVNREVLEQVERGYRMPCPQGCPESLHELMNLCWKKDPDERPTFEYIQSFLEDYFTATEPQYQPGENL
# Sequence of CK1g1 (Q9HCP0 whole entry): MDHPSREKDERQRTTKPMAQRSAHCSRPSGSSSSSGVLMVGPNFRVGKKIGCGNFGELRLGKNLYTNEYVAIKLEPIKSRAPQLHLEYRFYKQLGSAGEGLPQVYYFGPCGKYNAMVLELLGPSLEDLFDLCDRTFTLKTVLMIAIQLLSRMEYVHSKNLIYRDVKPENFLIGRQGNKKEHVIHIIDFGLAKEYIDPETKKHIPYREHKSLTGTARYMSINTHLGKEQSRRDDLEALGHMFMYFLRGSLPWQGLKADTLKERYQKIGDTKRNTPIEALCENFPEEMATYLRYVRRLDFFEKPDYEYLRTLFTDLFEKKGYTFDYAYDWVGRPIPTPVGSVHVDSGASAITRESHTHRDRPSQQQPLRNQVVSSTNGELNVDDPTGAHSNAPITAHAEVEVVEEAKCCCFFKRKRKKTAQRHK
# Sequence of FGFR1 (P11362 22-822): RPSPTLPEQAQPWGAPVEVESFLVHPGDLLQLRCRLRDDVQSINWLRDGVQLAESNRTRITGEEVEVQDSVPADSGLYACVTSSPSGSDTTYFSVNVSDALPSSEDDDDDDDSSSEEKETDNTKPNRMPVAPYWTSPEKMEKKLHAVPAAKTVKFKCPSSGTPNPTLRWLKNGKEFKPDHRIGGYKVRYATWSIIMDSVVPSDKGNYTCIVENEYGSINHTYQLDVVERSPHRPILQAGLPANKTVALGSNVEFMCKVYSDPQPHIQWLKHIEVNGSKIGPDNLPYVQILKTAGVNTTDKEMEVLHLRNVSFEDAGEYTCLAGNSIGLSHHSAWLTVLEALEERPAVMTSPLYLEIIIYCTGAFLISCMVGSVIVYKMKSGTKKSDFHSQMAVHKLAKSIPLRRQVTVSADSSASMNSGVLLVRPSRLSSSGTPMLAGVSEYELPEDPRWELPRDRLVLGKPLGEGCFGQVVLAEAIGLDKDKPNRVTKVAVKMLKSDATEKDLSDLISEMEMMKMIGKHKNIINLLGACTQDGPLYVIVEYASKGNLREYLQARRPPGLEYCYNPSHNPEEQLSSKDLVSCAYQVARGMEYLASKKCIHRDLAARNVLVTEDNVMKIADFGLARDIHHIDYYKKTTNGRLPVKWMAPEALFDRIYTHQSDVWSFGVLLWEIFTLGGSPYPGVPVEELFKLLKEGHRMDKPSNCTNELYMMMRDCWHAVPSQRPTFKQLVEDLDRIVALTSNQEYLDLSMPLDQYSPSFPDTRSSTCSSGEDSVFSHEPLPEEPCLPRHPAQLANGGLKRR
# Sequence of PKCb2 (P05771 1-673 isoform P05771-2): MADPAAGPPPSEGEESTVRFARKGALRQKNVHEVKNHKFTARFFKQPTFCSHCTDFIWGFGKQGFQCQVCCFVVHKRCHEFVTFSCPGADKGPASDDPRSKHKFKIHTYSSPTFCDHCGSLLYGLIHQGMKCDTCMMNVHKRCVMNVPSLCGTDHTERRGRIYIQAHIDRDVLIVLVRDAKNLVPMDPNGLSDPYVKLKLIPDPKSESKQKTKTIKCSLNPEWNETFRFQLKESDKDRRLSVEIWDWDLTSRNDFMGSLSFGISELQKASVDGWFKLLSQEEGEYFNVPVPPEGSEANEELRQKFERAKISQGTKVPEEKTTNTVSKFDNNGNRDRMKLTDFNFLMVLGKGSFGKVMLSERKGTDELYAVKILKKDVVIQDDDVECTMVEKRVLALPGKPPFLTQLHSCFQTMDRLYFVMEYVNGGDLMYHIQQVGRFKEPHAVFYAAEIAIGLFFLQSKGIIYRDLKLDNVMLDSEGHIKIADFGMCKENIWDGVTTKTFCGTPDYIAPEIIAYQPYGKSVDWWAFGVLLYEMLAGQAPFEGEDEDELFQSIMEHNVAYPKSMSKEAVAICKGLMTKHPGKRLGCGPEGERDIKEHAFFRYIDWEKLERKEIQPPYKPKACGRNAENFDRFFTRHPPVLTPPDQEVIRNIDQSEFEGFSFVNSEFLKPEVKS
# Sequence of RIPK2 (O43353 whole entry): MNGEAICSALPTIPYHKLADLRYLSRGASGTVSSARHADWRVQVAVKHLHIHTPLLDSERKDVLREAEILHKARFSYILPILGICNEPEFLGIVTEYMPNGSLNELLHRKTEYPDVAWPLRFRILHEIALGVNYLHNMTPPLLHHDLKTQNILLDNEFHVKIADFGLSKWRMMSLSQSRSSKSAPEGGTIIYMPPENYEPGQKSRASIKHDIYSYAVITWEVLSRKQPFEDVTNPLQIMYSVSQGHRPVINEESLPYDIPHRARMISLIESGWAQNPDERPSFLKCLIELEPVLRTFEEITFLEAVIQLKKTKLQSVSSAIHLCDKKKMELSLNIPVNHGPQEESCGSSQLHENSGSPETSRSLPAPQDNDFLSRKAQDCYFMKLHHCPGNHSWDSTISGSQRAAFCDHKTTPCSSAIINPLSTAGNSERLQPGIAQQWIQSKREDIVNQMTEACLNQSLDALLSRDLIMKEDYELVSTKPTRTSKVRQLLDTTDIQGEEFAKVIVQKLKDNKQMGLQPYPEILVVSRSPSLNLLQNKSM
# Sequence of EPHA2 (P29317 24-976): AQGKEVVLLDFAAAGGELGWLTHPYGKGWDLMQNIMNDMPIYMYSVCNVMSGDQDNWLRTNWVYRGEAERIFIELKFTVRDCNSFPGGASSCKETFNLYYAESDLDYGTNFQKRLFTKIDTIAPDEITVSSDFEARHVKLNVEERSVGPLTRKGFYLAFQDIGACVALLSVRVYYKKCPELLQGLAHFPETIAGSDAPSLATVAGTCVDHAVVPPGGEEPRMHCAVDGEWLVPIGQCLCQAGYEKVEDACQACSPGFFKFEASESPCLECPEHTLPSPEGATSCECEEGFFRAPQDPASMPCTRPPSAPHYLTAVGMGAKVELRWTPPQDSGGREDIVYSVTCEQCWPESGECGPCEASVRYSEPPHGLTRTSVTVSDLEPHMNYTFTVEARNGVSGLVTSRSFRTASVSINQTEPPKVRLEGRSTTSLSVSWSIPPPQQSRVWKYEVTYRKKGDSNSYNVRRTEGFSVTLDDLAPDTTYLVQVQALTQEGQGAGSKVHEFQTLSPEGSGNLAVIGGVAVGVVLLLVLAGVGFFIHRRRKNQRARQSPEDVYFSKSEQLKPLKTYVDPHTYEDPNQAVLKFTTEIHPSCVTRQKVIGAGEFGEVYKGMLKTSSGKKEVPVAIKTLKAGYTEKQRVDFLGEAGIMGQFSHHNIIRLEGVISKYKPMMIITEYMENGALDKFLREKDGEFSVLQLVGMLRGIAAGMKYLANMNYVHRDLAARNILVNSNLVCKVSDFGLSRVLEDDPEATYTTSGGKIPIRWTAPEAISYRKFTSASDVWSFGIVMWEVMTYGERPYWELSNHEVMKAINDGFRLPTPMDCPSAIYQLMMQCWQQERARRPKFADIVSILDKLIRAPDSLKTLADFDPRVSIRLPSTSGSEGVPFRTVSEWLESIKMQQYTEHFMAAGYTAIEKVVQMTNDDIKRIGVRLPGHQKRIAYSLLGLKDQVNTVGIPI
smiles,measurement,setting,value
"CNc1c(C(N)=O)c2ccccn2c1C(=O)c1ccc(F)cc1 [Compound A, 2-methyl-amino-3-[(4-fluorophenyl)carbonyl]indolizine-1-carboxamide]",% of remaining activity (relative to DMSO),RIPK2; listed as Cmp A,91.39%
same,remaining activity at 10 µM,RIPK2; [2],93.5%
same,% of remaining activity (relative to DMSO),PDK1/PDPK1; listed as Cmp A,105.50%
same,remaining activity at 10 µM,PDK1/PDPK1; [2],107%
same,% of remaining activity (relative to DMSO),c-Src; listed as Cmp A,60.86%
same,remaining activity at 10 µM,c-Src; [2],61%
same,% of remaining activity (relative to DMSO),JNK2; listed as Cmp A,97.26%
same,remaining activity at 10 µM,JNK2; [2],99.9%
same,% of remaining activity (relative to DMSO),CK1e; listed as Cmp A,3.67%
same,remaining activity at 10 µM,CK1e; [2],2.81%
same,% of remaining activity (relative to DMSO),LCK; listed as Cmp A,39.87%
same,remaining activity at 10 µM,LCK; [2],39.4%
same,% of remaining activity (relative to DMSO),P38a/MAPK14; listed as Cmp A,34.47* %
same,remaining activity at 10 µM,P38a/MAPK14; [2],35.3%
same,% of remaining activity (relative to DMSO),FGFR1; listed as Cmp A,95.15%
same,remaining activity at 10 µM,FGFR1; [2],95.7%
same,% of remaining activity (relative to DMSO),GSK3B; listed as Cmp A,122.02%
same,remaining activity at 10 µM,GSK3B; [2],124%
same,% of remaining activity (relative to DMSO),EPHA2; listed as Cmp A,55.67%
same,remaining activity at 10 µM,EPHA2; [2],59%
same,% of remaining activity (relative to DMSO),PKCb2; listed as Cmp A,111.60%
same,remaining activity at 10 µM,PKCb2; [2],113%
same,% of remaining activity (relative to DMSO),CK1g3; listed as Cmp A,97.24%
same,remaining activity at 10 µM,CK1g3; [2],98.5%
same,% of remaining activity (relative to DMSO),CK1g1; listed as Cmp A,119.87%
same,remaining activity at 10 µM,CK1g1; [2],107%
same,% of remaining activity (relative to DMSO),PKA; listed as Cmp A,82.86%
same,remaining activity at 10 µM,PKA; [2],84.3%
same,% of remaining activity (relative to DMSO),YES/YES1; listed as Cmp A,60.09%
same,remaining activity at 10 µM,YES/YES1; [2],58.4%
same,% of remaining activity (relative to DMSO),MSK1/RPS6KA5; listed as Cmp A,111.83%
same,remaining activity at 10 µM,MSK1/RPS6KA5; [2],117%
same,% of remaining activity (relative to DMSO),CK1a1; listed as Cmp A,5.37%
same,remaining activity at 10 µM,CK1a1; [2],5.17%
same,"Escape latency (time to reach the target), Mean ± SEM, Day 1",[1]; Day 1,58.1 ± 1.44 s
same,"Path length to reach the target, Mean ± SEM, Day 1",[1]; Day 1,9.20 ± 0.46 meter
same,"Escape latency (time to reach the target), Mean ± SEM, Day 2",[1]; Day 2,53.7 ± 2.41 s
same,"Path length to reach the target, Mean ± SEM, Day 2",[1]; Day 2,8.60 ± 0.52 meter
same,"Escape latency (time to reach the target), Mean ± SEM, Day 3",[1]; Day 3,49.4 ± 3.23 s
same,"Path length to reach the target, Mean ± SEM, Day 3",[1]; Day 3,7.05 ± 0.62 meter
same,"Escape latency (time to reach the target), Mean ± SEM, Day 4",[1]; Day 4,45.4 ± 3.22 s
same,"Path length to reach the target, Mean ± SEM, Day 4",[1]; Day 4,6.94 ± 0.62 meter
